Test results from patent US11911349B2, “Rapidly improving vascular conditions by administering vitamin K” (NATTOPHARMA AS, priority 2018, dated 2024).

Columns and labels:
thrombin generation = test: Example 3: thrombin generation by calibrated automated thrombogram (CAT) in plasma; type: in vivo, mice; details: eight weeks
Procedure: Thrombin generation was measured in platelet-poor mice plasma using calibrated automated thrombography (CAT) technique as described in Hemker H C, Giesen P, Al Dieri R, Regnault V, de Smedt E, Wagenvoord R, et al. Calibrated automated thrombin generation measurement in clotting plasma. Pathophysiol Haemost Thromb 2003; 33:4-15. doi:71636. Thrombin generation was activated by mixing 21 μL of diluted plasma (1:1 with BSA5 buffer) with 7 μIL of fluorogenic substrate (Z-Gly-Gly-Arg-AMC, 16.6 mM) and 14 μL of trigger solution containing phospholipids, tissue factor and CaCl2 (4 μM, 1 pM and 16.6 mM, respectively). In the calibration wells, the 14 μL of reagents were replaced with calibrator (102 nM). Immediately after the activation, 5 μL of the mixture was pipetted on paper disks in a flat bottom 96-well polystyrene plate and covered with 40 μL of mineral oil. Fluorescent signals were measured using the Fluoroskan Ascent software (Thermo Labsystems, Helsinki, Finland) and transformed into thrombin concentration as described in Hemker H C, Kremers R. Data management in Thrombin Generation. Thromb Res 2013; 131:3-11. doi:10.1016/j.thromres.2012.10.011. The parameters analyzed included endogenous thrombin potential (ETP), peak thrombin concentration (peak), and lag time.

ApoE/LDLR−/− mice [1] = test: Example 3: MRI assessment of FMD in femoral artery and Ach response in abdominal aorta, young mice; type: in vivo; details: for improvement in endothelial function compared with low dose (0.05 mg/kg) for 4 weeks: four weeks
Procedure: In a first part of the study, the effects of low doses (0.05 mg/kg b.w./day) as well as higher doses (0.5 mg/kg b.w./day and 5 mg/kg b.w./day) of vitamin K2 (MK-7, referred to in this example as simply “vitamin K2,” unless noted otherwise) on endothelial function in ApoE/LDLR−/−mice without well-established atherosclerotic plaque and with early phase of endothelial dysfunction were assessed.
Mice were randomly assigned to one of four experimental groups: control (untreated group) and three groups treated with vitamin K2 at a dose of 0.05, 0.5, and 5 mg/kg b.w./day, respectively. End-point measurements were performed at the age of 10-16 weeks.
(§1) Magnetic resonance imaging (MRI) experiments were performed using a 9.4T scanner (BioSpec 94/20 USR, Bruker, Germany) located in the Department of Magnetic Resonance Imaging, Institute of Nuclear Physics, Polish Academy of Sciences in Krakow. During the experiment, mice were anaesthetized using isoflurane (Aerrane, Baxter Sp. z o. o., Poland, 1.7 vol %) in an oxygen and air (1:2) mixture and imaged in the supine position. Activity of the heart, respiration, and body temperature (maintained at 37° C. using circulating warm water) were monitored using a Monitoring and Gating System (SA Inc., Stony Brook, N.Y., USA).
Endothelial function was assessed based on vascular responses to acetylcholine (Ach) administration in brachiocephalic artery (BCA), left common carotid artery (LCA) (FIGS. 6 A and B) and abdominal aorta (AA) (FIG. 6C) as well as to responses to increase in flow (flow-mediated dilatation, FMD) in femoral artery (FA) (FIG. 6D) as described in Bar A, Skorka T, Jasinski K, Sternak M, Bartel Ż, Tyrankiewicz U, et al. Retrospectively-gated MRI for in vivo assessment of endothelium-dependent vasodilatation and endothelial permeability in murine models of endothelial dysfunction. NMR Biomed 2016; 29(8):1088; Sternak M, Bar A, Adamski M G, Mohaissen T, Marczyk B, Kieronska A, et al. The Deletion of Endothelial Sodium Channel α (αENaC) Impairs Endothelium-Dependent Vasodilation and Endothelial Barrier Integrity in Endotoxemia in Vivo. Front Pharmacol 2018; 9:178. doi:10.3389/fphar.2018.00178; and Bar A, Olkowicz M, Tyrankiewicz U, Kus E, Jasinski K, Smolenski R T, et al. Functional and Biochemical Endothelial Profiling In Vivo in a Murine Model of Endothelial Dysfunction; Comparison of Effects of 1-Methylnicotinamide and Angiotensin-converting Enzyme Inhibitor. Front Pharmacol 2017; 8:183. doi:10.3389/fphar.2017.00183).
Vasomotor response was examined by comparing two time-resolved 3D images of the vessels prior to and 25 minutes after intraperitoneal Ach administration (Sigma-Aldrich, Poznan Poland: 50 μl, 16.6 mg/kg), as well as prior to and 5 minutes after vessel occlusion. Images were acquired using the cine IntraGate™ FLASH 3D sequence, reconstructed with the IntraGate 1.2.b.2 macro (Bruker). End-diastolic volumes of vessels were analyzed using ImageJ software 1.46r (NIH Bethesda, Md., USA) and scripts written in Matlab (MathWorks, Natick, Mass., USA). Imaging parameters included the following: repetition time (TR)—6.4 ms, echo time (TE)—1.4 ms, field of view (FOV)—30×30×5 mm3, matrix size—256×256×30, flip angle (FA)—30°, and number of accumulations (NA)—15, reconstructed to 7 cardiac frames. Total scan time was 10 minutes.

ApoE/LDLR−/− mice [2] = test: Example 3: nitrite and nitrate concentration in plasma, older mice; type: in vivo; details: eight weeks
ApoE/LDLR−/− mice [3] = test: Example 3: MRI assessment of Ach response in BCA and LCA, older mice with advanced atherosclerosis; type: in vivo; details: low dose 0.03 mg/kg b.w/day, eight weeks, 24-week-old mice; listed as vitamin K2, 0.03 mg/kg/day
Procedure: In a second part of the study, the effects of a low dose (0.03 mg/kg b.w./day) as well as a high doses (10 mg/kg b.w./day) of vitamin K2 (MK-7) on endothelial function in ApoE/LDLR−/−mice with pre-established atherosclerosis were assessed.
as §1, with “USA). […]” for “USA).”
Vasomotor response was examined by comparing two time-resolved 3D images of the vessels prior to and 25 minutes after intraperitoneal Ach administration (Sigma-Aldrich, Poznan Poland: 50 μl, 16.6 mg/kg), as well as prior to and 5 minutes after vessel occlusion. […] End-diastolic volumes of vessels were analyzed using ImageJ software 1.46r (NIH Bethesda, Md., USA) and scripts written in Matlab (MathWorks, Natick, Mass., USA). […]

CC(C)=CCC/C(C)=C/CC/C(C)=C/CC/C(C)=C/CC/C(C)=C/CC/C(C)=C/CC/C(C)=C/CC1=C(C)C(=O)c2ccccc2C1=O [MK-7, menaquinone-7]
thrombin generation (thrombin generation; 0.03 mg/kg b.w./day): did not affect
thrombin generation (thrombin generation; 10 mg/kg b.w./day): did not affect
Ach response in AA, volume changes (ApoE/LDLR−/− mice [1]; 0.05 mg/kg b.w./day, eight weeks, untreated −16.22%, p=0.05): −0.65%
magnitude of endothelium-dependent response to acetylcholine in abdominal aorta (ACH-AA) (ApoE/LDLR−/− mice [1]; 0.05 mg/kg b.w./day, two weeks): lack of changes
magnitude of vasodilatation in response to increase in flow in femoral artery (FMD-FA) (ApoE/LDLR−/− mice [1]; 0.05 mg/kg b.w./day, two weeks): lack of changes
improvement in endothelial function compared with low dose (0.05 mg/kg) for 4 weeks (ApoE/LDLR−/− mice [1]; 0.5 mg/kg b.w./day): not superior
improvement in endothelial function compared with low dose (0.05 mg/kg) for 4 weeks (ApoE/LDLR−/− mice [1]; 5 mg/kg b.w./day): not superior
Ach response in AA, volume changes (ApoE/LDLR−/− mice [1]; 5 mg/kg b.w./day, two weeks, untreated −7.72%, p=0.1): 0.16%
concentration of NO3− in plasma (ApoE/LDLR−/− mice [2]; 0.03 mg/kg b.w./day): did not change significantly
concentration of NO3− in plasma (ApoE/LDLR−/− mice [2]; 10 mg/kg b.w./day): did not change significantly
increase in NO2− concentration in plasma (ApoE/LDLR−/− mice [2]; high dose 10 mg/kg b.w./day): ~42%
increase in NO2− concentration in plasma (ApoE/LDLR−/− mice [2]; low dose 0.03 mg/kg b.w./day): about 58%
volume change of LCA after Ach injection (ApoE/LDLR−/− mice [3]): ~−3%
